# Tests used:
# G9a = target: T1, G9a (Mus musculus, UniProt Q9Z148); experiment: H3K9me2 / G9a immunofluorescence staining in primary neuronal cultures; type: cell-based; conditions: for induction of H3K9me2 in response to glutamate: primary cortical cultures, glutamate toxicity
# T1 construct: UNC0642 pre-treated primary neuronal cultures compared to respective controls; endogenous in cells; host or cells: primary mouse cortical neuronal cultures (C57BL/6J embryos)
# T1 sequence (Q9Z148 1-1263): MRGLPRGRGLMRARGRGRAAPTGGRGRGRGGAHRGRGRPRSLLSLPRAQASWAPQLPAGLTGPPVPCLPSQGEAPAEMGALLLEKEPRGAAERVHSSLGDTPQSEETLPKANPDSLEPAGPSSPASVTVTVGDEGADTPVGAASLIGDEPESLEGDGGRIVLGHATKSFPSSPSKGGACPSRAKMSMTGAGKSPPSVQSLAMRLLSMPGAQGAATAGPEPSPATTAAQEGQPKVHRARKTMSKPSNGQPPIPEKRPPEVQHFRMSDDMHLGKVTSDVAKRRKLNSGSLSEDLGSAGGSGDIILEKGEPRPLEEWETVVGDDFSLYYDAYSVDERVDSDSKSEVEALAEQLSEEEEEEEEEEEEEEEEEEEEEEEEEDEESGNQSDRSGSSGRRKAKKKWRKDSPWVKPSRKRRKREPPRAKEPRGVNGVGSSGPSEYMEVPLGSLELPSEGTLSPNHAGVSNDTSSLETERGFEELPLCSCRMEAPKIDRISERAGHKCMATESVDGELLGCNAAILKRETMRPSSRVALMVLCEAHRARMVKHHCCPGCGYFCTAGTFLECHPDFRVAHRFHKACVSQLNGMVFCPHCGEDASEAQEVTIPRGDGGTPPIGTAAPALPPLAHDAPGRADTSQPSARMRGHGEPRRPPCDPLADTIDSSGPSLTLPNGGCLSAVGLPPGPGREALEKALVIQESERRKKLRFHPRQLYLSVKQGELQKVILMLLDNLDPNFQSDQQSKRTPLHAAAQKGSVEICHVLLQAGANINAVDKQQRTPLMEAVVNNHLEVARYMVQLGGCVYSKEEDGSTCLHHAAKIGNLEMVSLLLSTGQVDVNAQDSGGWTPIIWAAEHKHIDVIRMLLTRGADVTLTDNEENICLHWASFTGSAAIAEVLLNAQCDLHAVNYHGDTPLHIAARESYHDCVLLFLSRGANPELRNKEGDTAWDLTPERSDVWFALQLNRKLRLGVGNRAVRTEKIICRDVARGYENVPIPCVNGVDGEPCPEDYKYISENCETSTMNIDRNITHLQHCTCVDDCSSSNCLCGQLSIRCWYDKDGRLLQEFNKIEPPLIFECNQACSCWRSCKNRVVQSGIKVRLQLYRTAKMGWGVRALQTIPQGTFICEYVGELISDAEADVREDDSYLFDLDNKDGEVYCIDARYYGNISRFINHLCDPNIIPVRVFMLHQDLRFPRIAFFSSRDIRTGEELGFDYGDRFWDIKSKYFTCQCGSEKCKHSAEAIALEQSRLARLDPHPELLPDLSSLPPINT
# Protocol: (§1) For primary cortical cultures pregnant C57BL/6J, or G9afl/fl;Snap25-Cre mice were euthanized. To ensure comparability between genotypes, only embryos from heterozygous breeding's were used. Brainstem tissue of each embryo for genotyping was reserved and cortices were isolated, dissociated and cells were plated at a density of 1 × 10^5 cells per 1 cm^2 on poly-D-lysine-coated wells (5 µM Sigma-Aldrich, cat. no. A-003-M). If not stated otherwise, cells were maintained in neurobasal plus medium (supplemented with B27 plus, penicillin, streptomycin and L-glutamine; Gibco, cat. no. A3582901) at 37°C, 5% CO^2 and a relative humidity of 98%, and treated with 1 µM cytarabine (Sigma-Aldrich, cat. no. BP383) at 1 day in vitro (div) to inhibit glial cell proliferation. If no cytarabine was applied cells were maintained in PNBM medium (supplemented with neural cell survival factor, gentamycin and L-glutamine; Lonza). Throughout, cultures after 14-23 div were used for experiments. G9a inhibitor UNC0642 was used in a concentration of 1 µM and cultures were pre-treated 24 hours before further experimental procedures.
# Immunocytochemistry was performed as described previously (15). HiPSC-neurons and mouse neurons were cultivated on 12 mm diameter cover slips or on 96-well plates suited for confocal microscopy, fixed with 4% paraformaldehyde (PFA), incubated in 10% normal donkey's serum (NDS) containing 0.25% Triton X-100, and subsequently immunolabeling was performed. Immunostainings were analyzed with a Zeiss LSM 700 confocal microscope.
# [1] = system: primary cortical cultures; experiment: RealTime-Glo cell viability assay, glutamate excitotoxicity; type: cell-based, mouse; conditions: 20 µM glutamate-stimulated primary cortical cultures; UNC0642 1 µM pre-treated 24 hours
# Protocol: as §1, with “G9a inhibitor UNC0642 was used in a concentration of 1 µM and cultures were pre-treated 24 hours before further experimental procedures.” left out
# RealTime-Glo (Promega, cat. no. G9711) MT cell viability substrate and NanoLuc Enzyme was mixed together, added to neuronal cultures and incubated for 5 hours for equilibration of luminescence signal before respective treatments were applied. Luminescence was acquired with a Spark 10M multimode microplate reader (Tecan) at 37°C and 5% CO2 every 30 min over a total time period of 24 hours. […]
# [2] = system: primary neuronal cultures; experiment: Cytosolic calcium imaging of glutamate-exposed neuronal cultures; type: cell-based, mouse; conditions: glutamate-exposed neuronal cultures; UNC0642 pre-treated 24 hours; ferrostatin-1 10 min prior to glutamate
# Protocol: as §1
# Primary neuronal cultures were seeded on Ibidi 60 µ-Dish Quad (cat. No. 80411) plates. Cultures were infected with an AAV7 containing pAAV-Syn-GCamp6f-WPRE-SV40 (86) (Addgene 100837) at 7-10 div with a 20,000-fold multiplicity of infection (MOI). AAV particles were produced according to the standard procedures of the UKE vector facility. Images were acquired with a confocal LSM 700 laser scanning confocal microscope (Zeiss) every 0.48 seconds with a 20× magnification in an imaging chamber maintaining 37 °C and 5% CO2. Infected cultures were imaged in the respective culture medium. Before applying the indicated chemicals, 5-10 min of baseline activity was first recorded. At the end of the recording, 8 µM ionomycin was applied to induce the maximum cellular calcium response that was used for normalization. For data analysis, mean fluorescence values of every cell were measured using Fiji software (NIH) and normalized to the maximal calcium response after ionomycin challenge. For each cell, mean AUC of the calcium response was calculated using a custom R script.
Compound,induction of H3K9me2 in response to glutamate (G9a),toxic calcium accumulation (glutamate-induced calcium overload) [2],also measured
NC(CCCP(=O)(O)O)C(=O)O (stereo not shown) [AP5],potently suppressed the induction of H3K9me2,,cell viability [1]: rescued cellular survival
"NCCC[C@](N)(C(=O)O)C(F)F [DFMO, alpha-difluoro-methylornithine]",,rescued glutamate-induced calcium overload,
O=C(O)CN(CCOCCOCCN(CC(=O)O)CC(=O)O)CC(=O)O [EGTA],potently suppressed the induction of H3K9me2,,
COC(=O)c1ccc(C2c3[nH]c4ccccc4c3CC(C(=O)OC)N2C(=O)CCl)cc1 (stereo not shown) [RSL3],,,"H3K9me2 immunofluorescence after cell death induction (G9a; primary cortical neurons, inducer alone vs. control): significant upregulation of H3K9me2"
COC1=C(OC)C(=O)C(C/C=C(\C)CC/C=C(\C)CC/C=C(\C)CC/C=C(\C)CC/C=C(\C)CC/C=C(\C)CC/C=C(\C)CC/C=C(\C)CC/C=C(\C)CCC=C(C)C)=C(C)C1=O [coenzyme Q10],,rescued glutamate-induced calcium overload,
CCOC(=O)c1ccc(NC2CCCCC2)c(N)c1 [ferrostatin-1],,rescued glutamate-induced calcium overload,

# Source: patent EP4268823A1, “COMPOUND FOR TREATING NEUROINFLAMMATION” (Universitätsklinikum Hamburg-Eppendorf, priority 2022, dated 2023)
